Experiments:
in vivo = conditions: mouse, Table 1, N=6
Experimental: Amine borane compounds (0 to 100 mg/kg) were administered to CF1 male mice as a single injection with six mice for each dosage. Mice were weighed daily and the number of deaths was recorded each day for a 14 day period. The LD50 value was determined by the procedure of S.C. Gad and C.S. Weil, "Statistics for Toxicologists" in Principles and Methods of Toxicology, A.W. Hayes, Ed., 2nd Edition, P 435-483 Raven Press, New York 1982.

Cf1 male mice [1] = test: Anti-inflammatory screen, Winter's test, 2% carrageenan hind foot; assay type: in vivo
Experimental: Anti-inflammatory Screen- Cf1 - male mice-Winter's Test 2% carrageenan S.C. plantar surface of hind foot, drugs administered @8 or 10 mg/kg I.P. 2X
Winter, C.A., et al, Proc. Soc.

Sprague Dawley Rats = test: Anti-inflammatory activity in Sprague Dawley rats; assay type: in vivo; conditions: Table IV; 8 mg/kg I.P.
Cf1 male mice [2] = test: Writhing reflex, 0.6% acetic acid; assay type: in vivo; conditions: Table 1; Indomethacin 10 mg/kg
Experimental: Writhing reflex- Cf1 -male mice- 0.6% acetic acid I.P. drugs administered @20 mg/kg/ I.P. 20 min. later - the # of stretches/10 min.
Hendershot, L.C., et al, J.

Sprague Dawley male rats = test: Chronic adjuvant arthritis screen, Mycobacterium butyricum; assay type: in vivo; conditions: Table 1; Indomethacin 10 mg/kg
Acid phosphatase [3] = test: Mouse hepatic lysosomal acid phosphatase activity; assay type: biochemical; conditions: 5 × 10^-6 M, N=6; 5 µM
Excerpt: (§1) 1. Cf1 male mouse hepatic 10% homogenates in 0.25M sucrose+0.001MEDTA,pH 7.2.
(§2) Lysosomal Enzymes - free and total [triton X-100].
(§3) 1. Acid phosphatase -beta glycerol-3-phosphate, pH 5.0, released IP 720 nm.
Acid phosphatase activity -

Cathepsin D [4] = target: T1, Cathepsin D (Mus musculus, UniProt P18242); test: Mouse hepatic lysosomal cathepsin D activity; assay type: biochemical
T1 construct: azocasein assay pH 5.0
T1 sequence (P18242 65-410): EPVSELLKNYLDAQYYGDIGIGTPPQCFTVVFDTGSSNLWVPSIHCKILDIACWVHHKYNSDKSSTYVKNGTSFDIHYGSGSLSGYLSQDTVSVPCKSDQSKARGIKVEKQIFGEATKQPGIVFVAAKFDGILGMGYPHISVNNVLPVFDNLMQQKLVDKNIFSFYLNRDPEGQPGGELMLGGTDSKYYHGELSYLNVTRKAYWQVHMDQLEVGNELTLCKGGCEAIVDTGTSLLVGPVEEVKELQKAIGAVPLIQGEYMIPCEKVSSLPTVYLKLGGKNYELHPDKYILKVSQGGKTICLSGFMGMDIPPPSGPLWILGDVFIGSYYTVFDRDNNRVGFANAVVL
Excerpt: as §1, §2
(§4) 2. Acid Cathepsin D -azocasein-pH 5.0, hydrolytic azo-peptide produce 366 nm.
Cathepsin azo casein activity -

Acid phosphatase [5] = test: Rat PMNs acid phosphatase activity; assay type: cell-based; conditions: 5 × 10^-6 M, N=6; 5 µM
Excerpt: (§5) 2. PMNs-polymorphonuclear neutrophils-rat peritoneal cavity 0.5% oyster glycogen.
as §3

Cathepsin [6] = target: T2, Cathepsin (Rattus norvegicus, UniProt P24268); test: Rat PMNs cathepsin activity; assay type: cell-based; conditions: pH 5; 5 × 10^-6 M, N=6; read-out: Rat PMNs Cathep.
T2 construct: azocasein assay pH 5.0
T2 sequence (P24268 65-407): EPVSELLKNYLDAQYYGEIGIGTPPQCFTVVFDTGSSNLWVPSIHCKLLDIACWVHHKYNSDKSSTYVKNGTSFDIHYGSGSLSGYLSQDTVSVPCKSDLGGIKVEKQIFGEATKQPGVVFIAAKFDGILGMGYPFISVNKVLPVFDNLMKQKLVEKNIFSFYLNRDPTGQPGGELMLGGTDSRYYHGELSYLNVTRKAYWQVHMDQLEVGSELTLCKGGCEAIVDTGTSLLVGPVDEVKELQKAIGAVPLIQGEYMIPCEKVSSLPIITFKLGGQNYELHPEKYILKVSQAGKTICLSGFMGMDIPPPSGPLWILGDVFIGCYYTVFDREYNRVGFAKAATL
Excerpt: as §5, §4

cAMP = test: PMNs cAMP levels, Gilman's radioimmune assay; assay type: cell-based, rat; conditions: 5 × 10^-6 M, N=6
Excerpt: as §5
cAMP levels Gilman's radioimmune assay. ^3 H(G)Cyclic-3', 5'-adenosine monophosphate.

[7] = system: Hepatic oxidative phosphorylation; test: Hepatic oxidative phosphorylation, Gilson oxygraph; assay type: biochemical, mouse; conditions: 10^-6 M; 1 µM
Excerpt: as §1

Cathepsin D [8] = target: T1, Cathepsin D; test: Mouse macrophage cathepsin D activity; assay type: cell-based; conditions: Table VII; mouse macrophage cultured cells, DMEM +10% FCS +P/S, 60 min incubation; read-out: Cathepsin D IC50
Excerpt: (§6) 3. Mouse macrophages J774A.1 BALB/c
as §4

Acid phosphatase [9] = test: Mouse macrophage acid phosphatase activity; assay type: cell-based
Aryl sulphatase [10] = test: Mouse macrophage aryl sulphatase activity; assay type: cell-based; conditions: Table VII; mouse macrophage cultured cells, 60 min incubation; read-out: Aryl Sulphatase IC50
Trypsin [11] = test: Mouse macrophage trypsin (BAEE) activity; assay type: cell-based
Elastase [12] = test: Mouse macrophage elastase activity; assay type: cell-based
[13] = system: Prostaglandin cyclooxygenase; test: Mouse macrophage prostaglandin cyclooxygenase activity; assay type: cell-based
Excerpt: as §6
(§7) Prostaglandin synthetase purified beef seminal vesicle ^3 H arachidonic acid (86.2 Ci/mmol), tlc separation.

Cf1 male mice [14] = test: Writhing reflex, 0.6% acetic acid; assay type: in vivo; set-up: response vs control in vivo: dose or concentration left out as unconfirmed
Prostaglandin synthetase = target: T3, Prostaglandin synthetase (Bos taurus, UniProt O62664); test: Prostaglandin synthetase (cyclooxygenase), purified beef seminal vesicle; assay type: biochemical; conditions: Table IX; commercial enzyme preparation; read-out: Beef Prostaglandin Cyclooxygenase IC50
T3 construct: Prostaglandin synthetase purified beef seminal vesicle; from tissue
T3 sequence (O62664 25-600): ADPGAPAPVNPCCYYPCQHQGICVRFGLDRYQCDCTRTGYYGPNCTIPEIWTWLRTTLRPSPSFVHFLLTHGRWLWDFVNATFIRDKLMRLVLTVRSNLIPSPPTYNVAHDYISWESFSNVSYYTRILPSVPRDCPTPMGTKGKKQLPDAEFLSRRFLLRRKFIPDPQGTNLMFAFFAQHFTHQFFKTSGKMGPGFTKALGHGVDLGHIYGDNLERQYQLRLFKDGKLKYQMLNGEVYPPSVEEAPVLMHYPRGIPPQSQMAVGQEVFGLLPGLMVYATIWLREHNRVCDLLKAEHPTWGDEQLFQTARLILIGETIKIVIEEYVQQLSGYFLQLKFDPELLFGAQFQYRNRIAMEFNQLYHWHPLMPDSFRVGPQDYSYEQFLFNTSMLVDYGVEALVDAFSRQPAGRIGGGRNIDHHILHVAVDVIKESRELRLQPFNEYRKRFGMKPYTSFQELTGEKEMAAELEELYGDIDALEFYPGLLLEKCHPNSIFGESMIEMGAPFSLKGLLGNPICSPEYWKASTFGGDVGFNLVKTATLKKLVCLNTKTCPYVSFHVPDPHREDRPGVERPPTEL
Excerpt: as §7

5'-lipoxygenase = target: T4, 5'-lipoxygenase (Mus musculus, UniProt P48999); test: Mouse hepatic 5'-lipoxygenase activity; assay type: biochemical; conditions: Table VI; mouse hepatic, 60 min incubation; read-out: 5'-lipoxygenase IC50
T4 construct: Cf1 male mouse hepatic 10% homogenates; from tissue; host or cells: CF1 male mouse liver, 10% homogenate
T4 sequence (P48999 1-674): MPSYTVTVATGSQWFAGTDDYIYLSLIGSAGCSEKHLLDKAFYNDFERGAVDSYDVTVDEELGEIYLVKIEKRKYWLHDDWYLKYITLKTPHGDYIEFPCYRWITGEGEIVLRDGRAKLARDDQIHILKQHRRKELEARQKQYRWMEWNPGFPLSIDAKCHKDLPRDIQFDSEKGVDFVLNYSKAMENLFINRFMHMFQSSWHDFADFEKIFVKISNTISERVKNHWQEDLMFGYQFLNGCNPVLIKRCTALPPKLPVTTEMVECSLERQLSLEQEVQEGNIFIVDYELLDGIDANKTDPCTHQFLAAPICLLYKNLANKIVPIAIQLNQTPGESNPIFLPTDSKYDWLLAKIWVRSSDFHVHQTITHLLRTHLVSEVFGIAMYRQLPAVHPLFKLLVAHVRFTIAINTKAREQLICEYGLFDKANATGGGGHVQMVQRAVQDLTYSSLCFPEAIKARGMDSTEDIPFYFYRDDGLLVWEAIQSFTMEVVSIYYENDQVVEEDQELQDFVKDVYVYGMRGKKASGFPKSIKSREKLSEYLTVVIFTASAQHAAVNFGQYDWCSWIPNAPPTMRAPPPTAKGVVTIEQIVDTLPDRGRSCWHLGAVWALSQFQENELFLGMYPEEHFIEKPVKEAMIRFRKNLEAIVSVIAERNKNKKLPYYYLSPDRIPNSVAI
Excerpt: as §1
5'-lipoxygenase Mylari, B.L., et al, J. Med.

Trypsin [15] = test: Human osteoporosis fibroblasts trypsin (BAEE) activity; assay type: cell-based; conditions: read-out: Trypsin BAEE IC50; Table XI; human osteoporosis fibroblasts, 60 min incubation
Excerpt: 1. Trypsin- N-benzoyl-L-arginine ethyl ester pH 8.0, hydrolytic product 253 nm.

Cathepsin D [16] = target: T5, Cathepsin D (Homo sapiens, UniProt P07339); test: Human osteoporosis fibroblasts cathepsin D (azo-casein) activity; assay type: cell-based; conditions: Table X; human osteoporosis fibroblasts, DMEM +10% FCS + P/S; read-out: Cathepsin D IC50
T5 construct: azocasein assay pH 5.0
T5 sequence (P07339 65-412): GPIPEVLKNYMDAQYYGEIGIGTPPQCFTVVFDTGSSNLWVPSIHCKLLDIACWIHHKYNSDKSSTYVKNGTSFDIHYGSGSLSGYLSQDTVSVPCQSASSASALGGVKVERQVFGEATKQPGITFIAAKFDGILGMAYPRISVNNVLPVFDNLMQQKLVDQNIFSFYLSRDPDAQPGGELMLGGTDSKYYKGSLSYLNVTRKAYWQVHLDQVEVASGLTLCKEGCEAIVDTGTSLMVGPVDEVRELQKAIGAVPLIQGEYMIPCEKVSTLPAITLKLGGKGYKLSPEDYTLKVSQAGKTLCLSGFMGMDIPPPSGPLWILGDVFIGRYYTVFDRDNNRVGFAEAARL
Excerpt: Osteoporosis Human Fibroblast-CRL-1140, Be SA1

Acid phosphatase [17] = test: Human osteoporosis fibroblasts acid phosphatase activity; assay type: cell-based; conditions: read-out: Acid Phosphatase IC50; Table X; human osteoporosis fibroblasts
Excerpt: as §3

Aryl sulphatase [18] = test: Human osteoporosis fibroblasts aryl sulphatase activity; assay type: cell-based; conditions: read-out: Aryl Sulphatase IC50; Table X; human osteoporosis fibroblasts
Excerpt: 3. Aryl sulphatase- p-nitrocatechol sulfate, pH
5. 8 p-nitro-catechol product 510 nm.

Elastase [19] = test: Human osteoporosis fibroblasts elastase activity; assay type: cell-based; conditions: read-out: Elastase IC50; Table XI; human osteoporosis fibroblasts, 60 min incubation
Excerpt: (§8) 2. Elastase- N-succinyl-L-alanyl-L-alanine-p-nitroanilide, pH 8.0, p-nitro anilide 410 nm.

[20] = system: Prostaglandin cyclooxygenase; test: Human osteoporosis fibroblasts prostaglandin cyclooxygenase activity; assay type: cell-based; conditions: read-out: Prostaglandin Cyclooxygense IC50, Table XI, 60 min incubation
[21] = target: T6, Porcine Pancreatic Elastase (Sus scrofa, UniProt P00772); test: Porcine pancreatic elastase activity in vitro; assay type: biochemical; conditions: Table IX; commercial enzyme preparation
T6 construct: purchased; host or cells: porcine pancreas
T6 sequence (P00772 27-266): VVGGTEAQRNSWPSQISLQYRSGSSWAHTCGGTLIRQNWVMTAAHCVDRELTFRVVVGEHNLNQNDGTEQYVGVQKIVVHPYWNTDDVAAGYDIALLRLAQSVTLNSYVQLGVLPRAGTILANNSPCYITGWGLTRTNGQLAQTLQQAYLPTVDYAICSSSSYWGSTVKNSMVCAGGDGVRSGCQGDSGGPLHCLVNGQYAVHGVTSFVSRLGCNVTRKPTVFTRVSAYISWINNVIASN
Excerpt: as §8

Cathepsin [22] = test: Human leukocyte cathepsin; assay type: cell-based; conditions: read-out: Cathepsin IC50; Table XII; human leukocytes, 60 min incubation
Excerpt: 5. Human peripheral leukocytes, RPMI-1788
as §4

With `C[N+](C)(C)[BH2-]C(=O)O` [Compound 3, Trimethylamine-carboxyborane] the LD50 at 336 h (in vivo) was 1800 mg/kg, the Anti-inflammatory (Cf1 male mice [1]; Table 1, drugs 8 or 10 mg/kg I.P. 2X, Indomethacin 10 mg/kg) was 79 % Control and the “Anti-Inflammatory Activity Mice” value (Cf1 male mice [1]; Table IV, 8 mg/kg I.P.) was 58 % Control. For the same compound, the “Anti-Inflammatory Activity Sprague Dawley Rats” value (Sprague Dawley Rats) was 59 % Control, the Writhing (Cf1 male mice [2]) was 29 % Control and the Anti-arthritic (Sprague Dawley male rats) was 53 % Control. For the same compound, the “Mouse Liver Acid Phosph.” value (Acid phosphatase [3]) was 82 + 5 % Control, the activity at 5 µM (Cathepsin D [4]; pH 5, 5 × 10^-6 M, N=6, read-out: Mouse Liver Cathep.) was 56% and the “Rat PMNs Acid Phoph.” value (Acid phosphatase [5]) was 50 + 3 % Control. For the same compound, the activity at 5 µM (Cathepsin [6]) was 14%, the “PMNs cAMP” value (cAMP) was 99 % Control and the “Hepatic Oxidative Phosphorylation Succinate State 3” value [7] was 63 + 4 % Control. The “Hepatic Oxidative Phosphorylation Succinate State 4” value [7] was 122 + 14 % Control, the “Hepatic Oxidative Phosphorylation alpha-Ketoglutrate State 3” value [7] was 70 + 20 % Control and the “Hepatic Oxidative Phosphorylation alpha-Ketoglutrate State 4” value [7] was 127 + 22 % Control. It also gave an IC50 (Cathepsin D [8]) of 6.71 µM, an IC50 (Acid phosphatase [9]; Table VII; mouse macrophage cultured cells, 60 min incubation; read-out: Acid Phosphatase IC50) of 1.04 µM and an IC50 (Aryl sulphatase [10]) of 7.42 µM. For the same compound, the IC50 (Trypsin [11]; Table VIII; mouse macrophages, 60 min incubation; read-out: Trypsin BAEE IC50) was 2.78 µM, the IC50 (Elastase [12]; Table VIII; mouse macrophages, 60 min incubation; read-out: Elastase IC50) was 2.14 µM and the IC50 ([13]; Table VIII; mouse macrophages, 60 min incubation; read-out: Prostaglandin Cyclooxygenase IC50) was 2.81 µM. For the same compound, the “Writhing Reflex Cf1 Mice” value (Cf1 male mice [14]; Table IV, 8 mg/kg I.P.) was 11.5 % Control.

In the case of `[BH3-][NH+]1CCOCC1` [Compound 1, Morpholine-borane], the IC50 (Cathepsin D [4]; Table V, mouse hepatic, 60 min incubation, read-out: Cathepsin D IC50) is reported as 0.88 µM, the IC50 (Prostaglandin synthetase) is reported as 2.36 µM and the IC50 (5'-lipoxygenase) is reported as 66.9 µM. For the same compound, the IC50 (Acid phosphatase [9]; read-out: Acid Phosphatase IC50; Table VII; mouse macrophage cultured cells, 60 min incubation) was 3.18 µM, the IC50 (Trypsin [11]; read-out: Trypsin BAEE IC50; Table VIII; mouse macrophages, 60 min incubation) was 2.39 µM and the IC50 (Elastase [12]; read-out: Elastase IC50; Table VIII; mouse macrophages, 60 min incubation) was 5.94 µM. For the same compound, the IC50 ([13]; read-out: Prostaglandin Cyclooxygenase IC50; Table VIII; mouse macrophages, 60 min incubation) was 1.47 µM, the IC50 (Trypsin [15]) was 7.88 µM and the IC50 (Cathepsin D [16]) was 4.4 µM. The IC50 (Acid phosphatase [17]) was 10.3 µM, the IC50 (Aryl sulphatase [18]) was 8.99 µM and the IC50 (Elastase [19]) was 1.84 µM. It also gave an IC50 [20] of 3.41 µM, an IC50 [21] of 14.9 µM and an IC50 (Cathepsin [22]) of 72.8 µM. For the same compound, the response vs control in vivo (Cf1 male mice [14]; Mus musculus, ip, read-out: Writhing Reflex Cf1 Mice) was 15.2%.

From patent US5312816A, “Method of combatting osteoporosis in mammalian subjects, utilizing organic boron compounds” (priority 1993, dated 1994)
